Assay results: patent publication US12559492B2, “BRAF degraders” (C4 Therapeutics, Inc., priority 2020, dated 2026)
Structures can show the parent of a compound that is named as a salt.

Molecular target: BRAF^V600E protein (Homo sapiens, UniProt P15056, V600E)
Test: HiBiT cellular BRAF V600E degradation assay
Assay type: cell-based
Conditions: 24 h incubation; for DC50: A375.10 cells (HiBiT tag knocked in at N-terminal of BRAF V600E), concentration at which 50% of total cellular BRAF V600E is degraded; for Emax: A375.10 cells, Emax = amount of residual protein remaining in the cell after compound treatment, read-out: HiBit 24 h Emax

Chain of BRAF^V600E protein (P15056 whole entry V600E): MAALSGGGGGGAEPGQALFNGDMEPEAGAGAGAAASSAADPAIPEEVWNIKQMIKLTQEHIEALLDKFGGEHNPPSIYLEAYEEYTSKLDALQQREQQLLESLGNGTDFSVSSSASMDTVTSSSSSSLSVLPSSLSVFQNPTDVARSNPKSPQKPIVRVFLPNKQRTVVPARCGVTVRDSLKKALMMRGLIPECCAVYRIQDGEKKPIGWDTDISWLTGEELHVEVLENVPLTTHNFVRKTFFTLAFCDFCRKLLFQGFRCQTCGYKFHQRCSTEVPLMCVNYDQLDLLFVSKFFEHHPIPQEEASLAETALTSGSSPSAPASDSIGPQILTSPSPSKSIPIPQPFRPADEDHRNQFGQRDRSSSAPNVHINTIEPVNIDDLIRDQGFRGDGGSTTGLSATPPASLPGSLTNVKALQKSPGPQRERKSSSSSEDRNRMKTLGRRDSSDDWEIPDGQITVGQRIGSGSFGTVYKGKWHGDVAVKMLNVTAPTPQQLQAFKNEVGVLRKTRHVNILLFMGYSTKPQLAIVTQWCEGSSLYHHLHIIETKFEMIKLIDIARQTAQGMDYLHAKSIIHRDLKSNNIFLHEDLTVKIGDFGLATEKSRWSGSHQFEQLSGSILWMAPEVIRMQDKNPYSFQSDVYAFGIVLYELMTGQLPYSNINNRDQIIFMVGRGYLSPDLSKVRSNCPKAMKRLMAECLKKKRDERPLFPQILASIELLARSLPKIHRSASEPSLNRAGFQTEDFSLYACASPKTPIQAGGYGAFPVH

Row | Structure (SMILES) | DC50 | Emax
1 | CCN(C)S(=O)(=O)Nc1ccc(F)c(C(=O)c2c[nH]c3ncc(-c4ccc(N5CCC(NCC(=O)N6CCC(c7ccc(OC8CCC(=O)NC8=O)cn7)CC6)CC5)cc4)cc23)c1F (stereo not shown) [Example A97, 5-[4-[4-[[2-[4-[5-(2,6-Dioxopiperidin-3-yl)oxypyridin-2-yl]piperidin-1-yl]-2-oxoethyl]amino]piperidin-1-yl]phenyl]-3-[3-[[ethyl(methyl)sulfamoyl]amino]-2,6-difluorobenzoyl]-1H-pyrrolo[2,3-b]pyridine;hydrochloride] | 84 nM | 12%
2 | CCN(C)S(=O)(=O)Nc1ccc(F)c(C(=O)c2c[nH]c3ncc(-c4ccc(N5CCC(NCC(=O)N6CCC(c7ccc(OC8CCC(=O)NC8=O)cc7)CC6)CC5)cc4)cc23)c1F (stereo not shown) [Example A99, 5-[4-[4-[[2-[4-[4-(2,6-Dioxopiperidin-3-yl)oxyphenyl]piperidin-1-yl]-2-oxoethyl]amino]piperidin-1-yl]phenyl]-3-[3-[[ethyl(methyl)sulfamoyl]amino]-2,6-difluorobenzoyl]-1H-pyrrolo[2,3-b]pyridine;hydrochloride] | 32 nM | 9%
3 | CCN(C)S(=O)(=O)Nc1ccc(F)c(C(=O)c2c[nH]c3ncc(-c4cnc(N5CCC(NCC(=O)N6CCC(c7ccc(OC8CCC(=O)NC8=O)cc7)CC6)CC5)nc4)cc23)c1F (stereo not shown) [Example A102, 5-[2-[4-[[2-[4-[4-(2,6-Dioxopiperidin-3-yl)oxyphenyl]piperidin-1-yl]-2-oxoethyl]amino]piperidin-1-yl]pyrimidin-5-yl]-3-[3-[[ethyl(methyl)sulfamoyl]amino]-2,6-difluorobenzoyl]-1H-pyrrolo[2,3-b]pyridine;formic acid] | 33 nM | 12%
4 | CC(C)S(=O)(=O)Nc1ccc(F)c(C(=O)c2c[nH]c3ncc(-c4ccc(N5CCN(C(=O)C6CC(N7CCC(c8ccc(NC9CCC(=O)NC9=O)cc8)CC7)C6)CC5)nc4)cc23)c1F (stereo not shown) [Example A107, N-[3-[5-[6-[4-[3-[4-[4-[(2,6-Dioxopiperidin-3-yl)amino]phenyl]piperidin-1-yl]cyclobutanecarbonyl]piperazin-1-yl]pyridin-3-yl]-1H-pyrrolo[2,3-b]pyridine-3-carbonyl]-2,4-difluorophenyl]propane-2-sulfonamide] | 12 nM | 12%
5 | CCN(C)S(=O)(=O)Nc1ccc(F)c(C(=O)c2c[nH]c3ncc(-c4ccc(N5CCC(NCC(=O)N6CCC(c7ccc(OC8CCC(=O)NC8=O)cc7)CC6)CC5)nc4)cc23)c1F (stereo not shown) [Example A109, 5-[6-[4-[[2-[4-[4-(2,6-Dioxopiperidin-3-yl)oxyphenyl]piperidin-1-yl]-2-oxoethyl]amino]piperidin-1-yl]pyridin-3-yl]-3-[3-[[ethyl(methyl)sulfamoyl]amino]-2,6-difluorobenzoyl]-1H-pyrrolo[2,3-b]pyridine; formic acid] | 44 nM | 13%
6 | CCN(C)S(=O)(=O)Nc1ccc(F)c(C(=O)c2c[nH]c3ncc(-c4cnc(N5CCC(CC(=O)N6CCC(c7ccc(N8CCC(=O)NC8=O)cc7)CC6)CC5)nc4)cc23)c1F [Example A113, 5-[2-[4-[2-[4-[4-(2,4-Dioxo-1,3-diazinan-1-yl)phenyl]piperidin-1-yl]-2-oxoethyl]piperidin-1-yl]pyrimidin-5-yl]-3-[3-[[ethyl(methyl)sulfamoyl]amino]-2,6-difluorobenzoyl]-1H-pyrrolo[2,3-b]pyridine] | 53 nM | 33%
7 | O=C1CCC(Oc2ccc(C3CCN(CC(=O)N4CC5(C4)CN(c4ccc(-c6cnc7[nH]cc(C(=O)c8c(F)ccc(NS(=O)(=O)N9CC[C@@H](F)C9)c8F)c7c6)cn4)C5)CC3)cc2)C(=O)N1 (stereo partly drawn) [Example A115, (3R)—N-[3-[5-[6-[2-[2-[4-[4-(2,6-dioxopiperidin-3-yl)oxyphenyl]piperidin-1-yl]acetyl]-2,6-diazaspiro[3.3]heptan-6-yl]pyridin-3-yl]-1H-pyrrolo[2,3-b]pyridine-3-carbonyl]-2,4-difluorophenyl]-3-fluoropyrrolidine-1-sulfonamide] | 204 nM | 15%

Now from value to compound:

Row | DC50 | Emax | Structure (SMILES)
8 | 12 nM | 12% | CCN(C)S(=O)(=O)Nc1ccc(F)c(C(=O)c2c[nH]c3ncc(-c4ccc(N5CCC(NCC(=O)N6CCC(c7ccc(NC8CCC(=O)NC8=O)cc7)CC6)CC5)cc4)cc23)c1F (stereo not shown) [Example A98, 5-[4-[4-[[2-[4-[4-[(2,6-Dioxopiperidin-3-yl)amino]phenyl]piperidin-1-yl]-2-oxoethyl]amino]piperidin-1-yl]phenyl]-3-[3-[[ethyl(methyl)sulfamoyl]amino]-2,6-difluorobenzoyl]-1H-pyrrolo[2,3-b]pyridine; hydrochloride]
9 | 10 nM | 11% | CCN(C)S(=O)(=O)Nc1ccc(F)c(C(=O)c2c[nH]c3ncc(-c4cnc(N5CCC(NCC(=O)N6CCC(c7ccc(NC8CCC(=O)NC8=O)cc7)CC6)CC5)nc4)cc23)c1F (stereo not shown) [Example A100, 5-[2-[4-[[2-[4-[4-[(2,6-Dioxopiperidin-3-yl)amino]phenyl]piperidin-1-yl]-2-oxoethyl]amino]piperidin-1-yl]pyrimidin-5-yl]-3-[3-[[ethyl(methyl)sulfamoyl]amino]-2,6-difluorobenzoyl]-1H-pyrrolo[2,3-b]pyridine;hydrochloride]
10 | 20 nM | 19% | CCN(C)S(=O)(=O)Nc1ccc(F)c(C(=O)c2c[nH]c3ncc(-c4ccc(N5CCC(N(C)CC(=O)N6CCC(c7ccc(NC8CCC(=O)NC8=O)cn7)CC6)CC5)nc4)cc23)c1F (stereo not shown) [Example A101, 5-[6-[4-[[2-[4-[5-[(2,6-Dioxopiperidin-3-yl)amino]pyridin-2-yl]piperidin-1-yl]-2-oxoethyl]-methylamino]piperidin-1-yl]pyridin-3-yl]-3-[3-[[ethyl(methyl)sulfamoyl]amino]-2,6-difluorobenzoyl]-1H-pyrrolo[2,3-b]pyridine; hydrochloride]
11 | 10 nM | 7% | CCN(C)S(=O)(=O)Nc1ccc(F)c(C(=O)c2c[nH]c3ncc(-c4ccc(N5CCN(C(=O)CN6CCC(c7ccc(N8CCC(=O)NC8=O)cc7)CC6)CC5)nc4)cc23)c1F [Example A104, 5-[6-[4-[2-[4-[4-(2,4-Dioxo-1,3-diazinan-1-yl)phenyl]piperidin-1-yl]acetyl]piperazin-1-yl]pyridin-3-yl]-3-[3-[[ethyl(methyl)sulfamoyl]amino]-2,6-difluorobenzoyl]-1H-pyrrolo[2,3-b]pyridine]
12 | 24 nM | 30% | O=C1CCC(Nc2ccc(CC(=O)N[C@H]3C[C@H](OC4CCN(c5ccc(-c6cnc7[nH]cc(C(=O)c8c(F)ccc(NS(=O)(=O)N9CCCC9)c8F)c7c6)cn5)CC4)C3)cc2)C(=O)N1 (stereo partly shown) [Example A105, N-[3-[1-[5-[3-[2,6-Difluoro-3-(pyrrolidin-1-ylsulfonylamino)benzoyl]-1H-pyrrolo[2,3-b]pyridin-5-yl]pyridin-2-yl]piperidin-4-yl]oxycyclobutyl]-2-[4-[(2,6-dioxopiperidin-3-yl)amino]phenyl]acetamide]
13 | 14 nM | 8% | CC(C)S(=O)(=O)Nc1ccc(F)c(C(=O)c2c[nH]c3ncc(-c4ccc(N5CCN(C(=O)CN6CCC(c7ccc(N8CCC(=O)NC8=O)cc7)CC6)CC5)nc4)cc23)c1F [Example A108, N-[3-[5-[6-[4-[2-[4-[4-(2,4-Dioxo-1,3-diazinan-1-yl)phenyl]piperidin-1-yl]acetyl]piperazin-1-yl]pyridin-3-yl]-1H-pyrrolo[2,3-b]pyridine-3-carbonyl]-2,4-difluorophenyl]propane-2-sulfonamide]
14 | 13 nM | 13% | CCN(C)S(=O)(=O)Nc1ccc(F)c(C(=O)c2c[nH]c3ncc(-c4ccc(N5CCC(NCC(=O)N6CCC(c7ccc(NC8CCC(=O)NC8=O)cc7)CC6)CC5)nc4)cc23)c1F (stereo not shown) [Example A110, 5-[6-[4-[[2-[4-[4-[(2,6-Dioxopiperidin-3-yl)amino]phenyl]piperidin-1-yl]-2-oxoethyl]amino]piperidin-1-yl]pyridin-3-yl]-3-[3-[[ethyl(methyl)sulfamoyl]amino]-2,6-difluorobenzoyl]-1H-pyrrolo[2,3-b]pyridine;formic acid]
15 | 15 nM | 15% | CCN(C)S(=O)(=O)Nc1ccc(F)c(C(=O)c2c[nH]c3ncc(-c4cnc(N5CCC(CC(=O)N6CCC(c7ccc(NC8CCC(=O)NC8=O)cc7)CC6)CC5)nc4)cc23)c1F (stereo not shown) [Example A112, 5-[2-[4-[2-[4-[4-[(2,6-Dioxopiperidin-3-yl)amino]phenyl]piperidin-1-yl]-2-oxoethyl]piperidin-1-yl]pyrimidin-5-yl]-3-[3-[[ethyl(methyl)sulfamoyl]amino]-2,6-difluorobenzoyl]-1H-pyrrolo[2,3-b]pyridine]
16 | 8.83 nM | 7.68% | CCN(C)S(=O)(=O)Nc1cccc(C(=O)c2c[nH]c3ncc(-c4ccc(N5CCN(C(=O)CN6CCC(c7ccc(NC8CCC(=O)NC8=O)cc7)CC6)CC5)nc4)cc23)c1Br (stereo not shown) [Example A114, 3-[2-Bromo-3-[[ethyl(methyl)sulfamoyl]amino]benzoyl]-5-[6-[4-[2-[4-[4-[(2,6-dioxopiperidin-3-yl)amino]phenyl]piperidin-1-yl]acetyl]piperazin-1-yl]pyridin-3-yl]-1H-pyrrolo[2,3-b]pyridine]
17 | 26 nM | 8% | O=C1CCC(Oc2ccc(C3CCN(CC(=O)N4CC5(C4)CN(c4ccc(-c6cnc7[nH]cc(C(=O)c8c(F)ccc(NS(=O)(=O)N9CCCC9)c8F)c7c6)cc4)C5)CC3)cc2)C(=O)N1 (stereo not shown) [Example A116, N-[3-[5-[4-[2-[2-[4-[4-(2,6-Dioxopiperidin-3-yl)oxyphenyl]piperidin-1-yl]acetyl]-2,6-diazaspiro[3.3]heptan-6-yl]phenyl]-1H-pyrrolo[2,3-b]pyridine-3-carbonyl]-2,4-difluorophenyl]pyrrolidine-1-sulfonamide]
